The LC50 is the concentration that kills 50% of the test population. By IC50 is commonly meant the point on the concentration scale where inhibition reaches its midpoint. A high value points to weaker potency in that assay. Broadly, the melting point is the temperature of the solid-liquid transition.

From PMC3349126, “Evaluation of the Cytotoxicity of Satureja spicigera and Its Main Compounds” (The Scientific World Journal, 2012) come the findings set out here.

The nature of data set [1]: Brine shrimp lethality assay (BSA). The following applies: Artemia salina (brine shrimp) nauplii, in vivo, probit analysis, read-out: LC50 against Artemia salina larvae. On the procedure:
Gohari et al. reported the method which was adopted to study the cytotoxic activity of the compounds [11]. Water life brand brine shrimp (Artemia salina) eggs were purchased from the Shalat Center (Tehran). The eggs were hatched in a flask containing 300 mL artificial seawater made […]. The flask was well aerated with the aid of an air pump and kept in a water bath at 29-30°C. A bright light was left on. The nauplii hatched within 48 h. The extracts and pure compounds were dissolved in normal saline. Different concentrations were obtained by serial dilution. Solution of each concentration (500 μL) was transferred into clean 24-well plates via a pipette, and aerated seawater having 10–20 nauplii (500 μL) was added. A check count was performed and the number alive noted after 24 h. The mortality end point of the bioassay was determined as the absence of controlled forward motion during 30 seconds of observation. […] Lethality percentage was determined and LC50 calculated based on probit analysis with 95% of confidence interval [11].

Data set [2] deals with HT-29 (colon adenocarcinoma). Nature of the data set: MTT cytotoxicity assay, HT-29. Conditions: Homo sapiens, 48 hours. It counts as cell-based. The method, then: (§1) Four cancerous cell lines HT29/219 (human, colon, epithelial-like, carcinoma), Caco2 (human, colon, adenocarcinoma), NIH-3T3 (Swiss NIH mouse, embryo fibroblast), and T47D (human, breast, ductal carcinoma) were purchased from the Pasteur Institute, Tehran, Iran. The cells were maintained in RPMI 1640, supplemented with 10% fetal bovine serum, 0.28 units/mL insulin, 100 μg/mL streptomycin, 100 units/mL penicillin, and 0.3 mg/mL glutamine. The cells were grown at 37°C in a humidified atmosphere of 5% CO2, in air.
(§2) The cytotoxicity of the compounds isolated from S. spicigera was assayed using the MTT cytotoxicity assay. The cells (3 × 10^ 4) were plated in 500 μL of medium/well in 48-well plates (NUNC Cell Culture Flasks, Denmark). After an overnight incubation at 37°C, in 5% CO2, and a humidified atmosphere, the samples were added to the cells to a final concentration of 500 μg/mL. “Methotrexate” (positive control) and pure compounds were examined at concentrations ranging from 5, 10, 20, 40, 80, and 100 μg/mL. The plates were incubated at 37°C, in 5% CO2, humidified atmosphere, for 48 hours. After 48 hours, 50 μL of 5 mg/mL MTT (dissolved in PBS) was added per well. After three hours of incubation, the MTT solution was removed and the cells were washed with 100 μL of PBS, twice. One hundred and fifty microlitres of DMSO was added per well, to solubilize the formazan crystals. The optical densities of the wells were then measured at 570 nm (690 nm reference wavelength). By referring to the control (medium with DMSO), the cell survival was assessed.
Background: Tetrazolium dyes change colour on reduction, which living cells bring about.

The test system of data set [3] is NIH 3T3 (Swiss embryo fibroblast). Nature of the data set: MTT cytotoxicity assay, NIH 3T3. It counts as cell-based. The following applies: Mus musculus, NIH3T3, 48 hours. On the procedure:
as §1, §2

Data set [4] deals with Caco-2 (colon adenocarcinoma). Nature of the data set: MTT cytotoxicity assay, Caco-2. Type of data set: cell-based. Conditions: Homo sapiens, 48 hours. On the procedure:
as §1, §2

For data set [5], the system named is T47D (human, breast, ductal carcinoma). Nature of the data set: MTT cytotoxicity assay, T47D. Type of data set: cell-based. The following applies: 48 hours. On the procedure:
as §1, §2

For data set [6], the system named is HT29/219, Caco2, NIH-3T3, and T47D. Nature of the data set: MTT cytotoxicity assay, all four cell lines (statement in words). Type of data set: cell-based. Conditions: 48 hours. On the procedure: as §1
The cytotoxicity of the compounds isolated from S. spicigera was assayed using the MTT cytotoxicity assay. The cells (3 × 10^ 4) were plated in 500 μL of medium/well in 48-well plates (NUNC Cell Culture Flasks, Denmark). After an overnight incubation at 37°C, in 5% CO2, and a humidified atmosphere, the samples were added to the cells to a final concentration of 500 μg/mL. “Methotrexate” (positive control) and pure compounds were examined at concentrations ranging from 5, 10, 20, 40, 80, and 100 μg/mL. The plates were incubated at 37°C, in 5% CO2, humidified atmosphere, for 48 hours. After 48 hours, 50 μL of 5 mg/mL MTT (dissolved in PBS) was added per well. […] The optical densities of the wells were then measured at 570 nm (690 nm reference wavelength). By referring to the control (medium with DMSO), the cell survival was assessed.

Values after ≈ are worked out from the molar mass of the structure shown. Structures can show the parent of a compound that is named as a salt.

`COc1ccc2cc3[n+](cc2c1OC)CCc1cc2c(cc1-3)OCO2` [berberine hydrochloride, reference compound]: the LC50 at 24 h in data set [1] came to 26 µg/mL.
`COc1cc(C2CC(=O)c3c(O)cc(OC4OC(COC5OC(C)C(O)C(O)C5O)C(O)C(O)C4O)cc3O2)ccc1O` [compound 9, 5,4′-Dihydroxy-3′-methoxyflavanone-7-(6′′-O-α-L-rhamnopyranosyl)-β-D-glucopyranoside] yielded a melting point of 256 °C. The molecule further registered an IC50 in data set [2] of more than 150 µg/mL. In addition, the IC50 in data set [3] worked out at 140 µg/mL (≈ 230 µM). In addition, the IC50 in data set [4] was more than 150 µg/mL. Moreover, in data set [5], half-maximal inhibition (IC50) required 98.7 µg/mL (≈ 162 µM).
In the case of `O=C1CC(c2cc(O)cc(O)c2)Oc2cc(O)cc(O)c21` (stereo not shown) [compound 8, 5,7,3′,5′-Tetrahydroxy Flavanone], the IC50 is more than 150 µg/mL in data set [2], 101 µg/mL (≈ 349 µM) in data set [3], more than 150 µg/mL in data set [4] and more than 150 µg/mL in data set [5]. The “inhibition of the cell growth or proliferation (in words)” value in data set [6] is recorded as “did not show significant inhibition”. For the same molecule, the LC50 at 24 h in data set [1] was determined as 2 µg/mL (≈ 6.94 µM).
Take `O=C(c1c(O)cc(O)cc1O)C(O)Cc1ccc(O)cc1` (stereo not shown) [compound 7, nubigenol]: the IC50 in data set [2] is more than 150 µg/mL; in data set [3] it was 112 µg/mL (≈ 386 µM); in data set [4], 143 µg/mL (≈ 493 µM); in data set [5] it was 132 µg/mL (≈ 455 µM).
